Columns and labels:
[1] = system: NIH3T3 (mouse embryo fibroblast cell line); assay: MTT cytotoxicity assay, NIH3T3 healthy cells; type: cell-based; details: Mus musculus, read-out: IC50 against NIH3T3
Experimental: (§1) The anticancer activity of compounds 5a–5o were screened according to the MTT assays. The MTT assays were performed as previously described[32]^,[33]. Anticancer activity of final compounds was assessed against five different cancer cell lines A549 (lung carcinoma cell line), HeLa (cervical cell line), MCF-7 (human breast adenocarcinoma cell line), HepG2 (human liver carcinoma cell line) and C6 (rat glioma cell line) cell lines as well as NIH3T3 (mouse embryo fibroblast cell line). Doxorubicin and Hoechst 33342 were used as the reference drugs in the MTT assays. It is crucial that an anticancer agent affects the cancer cell line but having minimal or no side-effect on healthy cells. For this purpose, the cytotoxic effects of the active compounds on the NIH3T3 cell line were investigated (Table 2).

[2] = system: HepG2 (human liver carcinoma cell line); assay: MTT cytotoxicity assay, HepG2; type: cell-based; details: Homo sapiens, read-out: IC50 against HepG2
Experimental: as §1, with “assays.” for “assays. It is crucial that an anticancer agent affects the cancer cell line but having minimal or no side-effect on healthy cells. For this purpose, the cytotoxic effects of the active compounds on the NIH3T3 cell line were investigated (Table 2).”
(§2) The benzimidazole-1,3,4-oxadiazole derivatives (5a-5o) were tested their cytotoxic effects in vitro using five cancer cell line A549 (lung carcinoma cell line), HeLa (cervical cell line), MCF-7 (human breast adenocarcinoma cell line), HepG2 (human liver carcinoma cell line) and C6 (rat glioma cell line) cell lines as well as NIH3T3 (mouse embryo fibroblast cell line). Doxorubicin and Hoechst 33342 were used for this study as a reference drugs.

[3] = system: HeLa (cervical cell line); assay: MTT cytotoxicity assay, HeLa; type: cell-based; details: Homo sapiens, read-out: IC50 against HeLa
Experimental: as §1, with “assays.” for “assays. It is crucial that an anticancer agent affects the cancer cell line but having minimal or no side-effect on healthy cells. For this purpose, the cytotoxic effects of the active compounds on the NIH3T3 cell line were investigated (Table 2).”
as §2

MCF-7 cell line = assay: Flow cytometric analysis (Annexin V/PI), MCF-7; type: cell-based, human; details: MCF-7 cells
Experimental: (§3) Death pathway of the carcinogenic cell lines was detected by Annexin V-FITC Apoptosis Detection Kit (BD, Pharmingen) as reported previously described. […] FCS Express software was used to display the percent of normal and apoptotic cells at different stages. […] The experiments were carried out in triplicates.
(§4) Annexin V/PI staining on tested cancer cells treated with the active compounds was performed to investigate induction of apoptosis. […] According to the MTT assay, compound 5n for A549 cell line; compounds 5a, 5d, 5e, 5o for MCF-7 cell line; compound 5k for C6 cell line; compound 5a for HepG2 cell line; compounds 5b, 5l and 5n for HeLa cell line were selected for the flow cytometric analysis. Furthermore, flow cytometry studies were performed for reference drug doxorubicin. Flow cytometric analysis diagrams of tested compounds and doxorubicin at IC50/2, IC50, and 2xIC50 concentrations on cancer cells were presented in Figures 7–11.

MCF7 cells = assay: DNA synthesis inhibition assay (BrdU), MCF7; type: cell-based, human; details: 48 h, 5e at 7.318 µg/mL, doxorubicin at 10.525 µg/mL
Experimental: (§5) The BrdU cell proliferation method was performed to analyse the effects of the active compounds on proliferation of cancer cells. Cancer cells were seeded into the 96-well plates at a density of 1 × 10^4 cells. Compounds were added into the each well at three different concentrations (IC50/2, IC50 and 2xIC50) and the plates were incubated for 24 h. At the end of the incubation period, BrdU solution was added and cells were reincubated for 2 h at 37 °C. Anti-BrdU-POD ([…]) was added and the mixture was incubated for 90 min. Microplates were washed with PBS for three times. After adding substrate solution, the mixture was incubated for 15 min. OD of the wells were determined at 492 nm. Proliferation of control cells was assessed as 100% and growth inhibition % of cells, treated with test compounds and […] were calculated.
(§6) According to the MTT assay, compound 5n for A549 cell line; compounds 5a, 5d, 5e, 5o for MCF-7 cell line; compound 5k for C6 cell line; compound 5a for HepG2 cell line; compounds 5b, 5l and 5n for HeLa cell line were selected for the DNA synthesis inhibition assay. A549, C6, MCF-7, HepG2 and HeLa cells were incubated with three different concentrations (IC50/2, IC50, and […]) of the compounds for 24 and 48 h time periods. […] Doxorubicin was used as positive control.

[4] = system: MCF-7 (human breast adenocarcinoma cell line); assay: MTT cytotoxicity assay, MCF-7; type: cell-based; details: Homo sapiens, MCF7, MCF-7 cell line, read-out: IC50 against MCF-7
Experimental: as §1, with “assays.” for “assays. It is crucial that an anticancer agent affects the cancer cell line but having minimal or no side-effect on healthy cells. For this purpose, the cytotoxic effects of the active compounds on the NIH3T3 cell line were investigated (Table 2).”
as §2

Topoisomerase I = target: T1, Topoisomerase I (Homo sapiens, UniProt P11387); assay: DNA topoisomerase I assay (relaxation of supercoiled plasmid DNA, agarose gel); type: biochemical; details: agarose gel electrophoresis, camptothecin positive control, Figure 12
T1 construct: purchased TopoGen TG1018-2
T1 sequence (P11387 1-765): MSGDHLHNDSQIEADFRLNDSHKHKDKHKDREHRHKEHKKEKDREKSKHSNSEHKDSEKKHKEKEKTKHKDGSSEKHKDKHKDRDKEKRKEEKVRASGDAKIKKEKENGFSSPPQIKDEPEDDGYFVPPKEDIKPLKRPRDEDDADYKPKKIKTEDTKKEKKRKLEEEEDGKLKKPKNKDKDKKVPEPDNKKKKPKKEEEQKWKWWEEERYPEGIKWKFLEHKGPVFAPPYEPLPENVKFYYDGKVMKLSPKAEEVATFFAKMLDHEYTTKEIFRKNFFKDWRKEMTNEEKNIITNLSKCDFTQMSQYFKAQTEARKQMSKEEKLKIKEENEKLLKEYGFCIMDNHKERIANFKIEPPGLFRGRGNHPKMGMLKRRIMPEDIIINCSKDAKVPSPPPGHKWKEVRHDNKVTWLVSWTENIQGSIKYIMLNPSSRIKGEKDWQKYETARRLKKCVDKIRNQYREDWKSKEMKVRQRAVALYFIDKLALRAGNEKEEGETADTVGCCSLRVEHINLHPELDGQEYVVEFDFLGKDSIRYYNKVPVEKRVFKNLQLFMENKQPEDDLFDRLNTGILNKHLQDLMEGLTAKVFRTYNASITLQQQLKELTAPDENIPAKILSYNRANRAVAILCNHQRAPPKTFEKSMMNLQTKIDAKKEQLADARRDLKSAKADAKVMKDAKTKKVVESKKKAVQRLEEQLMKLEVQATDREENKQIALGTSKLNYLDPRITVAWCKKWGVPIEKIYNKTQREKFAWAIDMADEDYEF
Experimental: The topoisomerase I inhibition activities of final compounds were measured as relaxation of supercoiled plasmid DNA using agarose gel electrophoresis and camptothecin was used as a positive control. The assay was carried out in a final volume of 20 µl reaction volume containing 2 µl of 10xTGS Buffer, 6 µl water, 2 µl supercoiled plasmid DNA, 2 µl test compound, 2 µl of Top1, 2 ul 10% SDS, 2 µl proteinase K, 2 µl DNA loading dye. After incubation of reaction mixtures at 37 °C for 30 min, electrophoresis was done on a 1% agarose gel at a potential 50 V for 75 min using 1xTAE buffer.
To determine whether the DNA intercalation properties of compounds 5a, 5b, 5d, 5e, 5k, 5l, 5n and 5o might result in Topo I inhibition, agarose gel electrophores is assay was performed to evaluate the Topo I inhibitory activity of them via agarose-gel electrophoresis and CPT was used as the positive control. The TopoGEN Topoisomerase I Drug Screening Kit were optimised and implemented to accomplish this goal.
In a previous studies, it was said that the compounds poisoning topoisomerase caused the formation of nick bands in such gel appearances, while the formation of Supercoiled bands was said to be caused by catalytic inhibitors that bound to either DNA or enzyme[40]^,[41].

[5] = system: C6 (rat glioma cell line); assay: MTT cytotoxicity assay, C6; type: cell-based; details: Rattus norvegicus, read-out: IC50 against C6
Experimental: as §1, with “assays.” for “assays. It is crucial that an anticancer agent affects the cancer cell line but having minimal or no side-effect on healthy cells. For this purpose, the cytotoxic effects of the active compounds on the NIH3T3 cell line were investigated (Table 2).”
as §2

[6] = system: A549 (lung carcinoma cell line); assay: MTT cytotoxicity assay, A549; type: cell-based; details: Homo sapiens, A549, MTT assay, read-out: IC50 against A549
Experimental: as §1, with “assays.” for “assays. It is crucial that an anticancer agent affects the cancer cell line but having minimal or no side-effect on healthy cells. For this purpose, the cytotoxic effects of the active compounds on the NIH3T3 cell line were investigated (Table 2).”
as §2

HeLa cells = assay: DNA synthesis inhibition assay (BrdU), HeLa; type: cell-based; details: 48 h, 5b 0.698, 5l 0.224, 5n 0.205, doxorubicin 14.280 µg/mL
Experimental: as §5, §6

HepG2 cell line = assay: Flow cytometric analysis (Annexin V/PI), HepG2; type: cell-based, human; details: at IC50 concentrations, 24 h incubation
Experimental: as §3, §4

HepG2 cells = assay: DNA synthesis inhibition assay (BrdU), HepG2; type: cell-based, human; details: 5a at 5.695 µg/mL, doxorubicin at 16.482 µg/mL
Experimental: as §5, §6

Topo I inhibition activity (Topoisomerase I) | SMILES | IC50 [1] | IC50 [2] | IC50 [3] | percentage of apoptosis (early + late apoptotic cells) (MCF-7 cell line) | % DNA synthesis inhibition (MCF7 cells) | IC50 [4] | IC50 [5] | IC50 [6] | % DNA synthesis inhibition (HeLa cells) | percentage of apoptotic cells (HepG2 cell line) | % DNA synthesis inhibition (HepG2 cells; 24 h) | % DNA synthesis inhibition (HepG2 cells; 48 h)
potent topo I inhibition activity | O=C(CSc1nnc(-c2ccc3nc(-c4ccc(O)cc4)[nH]c3c2)o1)N1CCN(c2ncccn2)CC1 [5e, 2-((5–(2-(4-Hydroxyphenyl)-1H-benzo[d]imidazol-6-yl)-1,3,4-oxadiazol-2-yl)thio)-1-(4-(pyrimidine-2-yl)-piperazin-1-yl)-ethane-1-on] | 54 ± 2.68 µM | ≥ 100 µM | ≥ 100 µM | 13.1% | 93.81% | 7.32 ± 0.352 µM | ≥ 100 µM |  |  |  |  | 
potent topo I inhibition activity | CCN1CCN(C(=O)CSc2nnc(-c3ccc4nc(-c5ccc(O)cc5)[nH]c4c3)o2)CC1 [5b, 2-((5–(2-(4-Hydroxyphenyl)-1H-benzo[d]imidazol-6-yl)-1,3,4-oxadiazol-2-yl)thio)-1–(4-ethyl-piperazin-1-yl) -ethane-1-on] | 944.4 ± 7.62 µM | ≥ 100 µM | 0.698 ± 0.032 µM |  |  | ≥ 100 µM | ≥ 100 µM | ≥ 100 µM | 49.70% |  |  | 
potent topo I inhibition activity | CN1CCN(C(=O)CSc2nnc(-c3ccc4nc(-c5ccc(O)cc5)[nH]c4c3)o2)CC1 [5a, 2-((5–(2-(4-Hydroxyphenyl)-1H-benzo[d]imidazol-6-yl)-1,3,4-oxadiazol-2-yl)thio)-1–(4-methyl-piperazin-1-yl) -ethane-1-on] | 39.1 ± 1.94 µM | 5.7 ± 0.283 µM | 14 ± 0.65 µM | 15.4% |  | 5.7 ± 0.254 µM | 15.6 ± 0.615 µM | 43.3 ± 1.79 µM |  | 13.2% | 60.89% | 72.05%

— paper PMC7470102, “Synthesis, anticancer evaluation and molecular docking studies of new benzimidazole- 1,3,4-oxadiazole derivatives as human topoisomerase types I poison” (Journal of Enzyme Inhibition and Medicinal Chemistry, 2020)
